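In this assay, cells in 96-well plates receive the compound at five concentrations for 48 hours. Endpoints are linearly interpolated between the surrounding concentrations. Here, GI50 denotes the concentration required for 50% inhibition of growth. TGI marks complete inhibition of growth.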 Some results are limits rather than exact numbers.

This is an account of results in PubChem BioAssay (NCI).

Test in all cases: inhibition of tumour cell growth, NCI panel, 48 h
The test system of test [1] is OVCAR-3 ovarian.
The test system of test [2] is OVCAR-4 ovarian.
For test [3], the system named is A498 renal.
Test [4] has as its system HT29 colon.
In test [5] the test system is SF-295 CNS.
Test [6] relates to HCT-15 colon.
Test [7] has as its system MALME-3M melanoma.
Test [8] relates to MCF7 breast.
The subject of test [9] is MDA-MB-435.
Test [10] concerns MDA-MB-231 breast.

For `Cc1ccc(-c2nc3c(C(=O)NCCN(C)C)cccc3[nH]2)cc1`, the TGI stood at 86.7 µM in [1]; 85.3 µM in [2]; 27.8 µM in [3]; 80.1 µM in [4]; 53.7 µM in [5]; 58.2 µM in test [6].
As for `COc1ccc(NC(=O)COC(=O)c2cccc3c(=O)c4ccccc4[nH]c23)cc1`, the TGI in [1] was found to be 43.8 µM; in test [7] it was 50.2 µM; in [2] it was 38.4 µM; in test [3] it was 39.6 µM; in test [4], 29.5 µM; in test [5], 40.2 µM.
For the compound `O=C1Cc2ccccc2N1c1c(Cl)cccc1Cl`, the TGI in test [1], in test [7], in test [2], in test [3], in [4] and in test [5] was > 100 µM throughout. Also, the TGI in test [6] is > 100 µM.
For `CCCCCCCCCCCCCC(=O)OC(/C=C/C(C)C)C(O)C(O)C(OC)C(=O)NC1CCCCNC1=O` (centres undefined), the GI50 was 6.19 µM in test [1]; 3.97 µM in test [2]; 4.03 µM in [4]; 2.92 µM in test [5]; 4.25 µM in [6]. For the same compound, the TGI amounted to 5.38 µM in [1]; 5.36 µM in [7]; 6.76 µM in test [2]; 14.6 µM in test [3]; 4.51 µM in [4]; 4.42 µM in test [5]. Besides, the TGI in test [6] came to 4.8 µM.
Regarding `S=P1(c2ccccc2)Nc2ccc(Cl)cc2N1` (centres undefined), the TGI in test [1], in [7], in test [2], in [3], in test [4] and in test [5] was > 100 µM throughout. Besides, in test [6], the TGI was > 100 µM.
Regarding `CCN(CC)CCC(=O)N1CCc2c([nH]c3ccccc23)C1c1cccnc1` (centres undefined), the TGI in test [1], in test [2], in test [3], in test [4], in test [5] and in [6] was > 100 µM in each case.
As for `CC(=O)c1c(O)ccc2c(C)c(C(=O)O)oc12`, the GI50 in test [1], in test [7], in [2], in [8], in test [3] and in test [4] was > 100 µM throughout. In addition, the GI50 in test [5], in test [6] and in test [9] was > 100 µM in each case. Further, the TGI in test [1], in test [7], in test [2], in test [8], in test [3] and in test [4] was > 100 µM each time. In addition, the TGI in [5], in test [6] and in test [9] was > 100 µM each time.
Consider `CC(=O)OC1(C#N)CC2OC1C1C2N1C(=O)OC(C)(C)C` (centres undefined), for which the TGI in test [7], in [2], in [3] and in test [6] was > 100 µM throughout.
Consider `CCCCCCCCCCCCSC(=NC)NC`, for which the GI50 in test [1] was 2 µM; in [10] it was 2.02 µM; in [7], 2.04 µM; in test [2], 2.16 µM; in test [3] it was 2.63 µM; in [4], 2.06 µM. Moreover, the GI50 in test [5] was 1.91 µM; in test [6] it was 1.55 µM; in test [9] it was 1.74 µM. Further, the TGI in test [1] was 4.82 µM; in [10], 4.15 µM; in test [7] it was 3.97 µM; in test [2], 5.61 µM; in [3], 8.69 µM; in test [4], 9.33 µM. The TGI in test [5] was 3.86 µM; in [6], 3.39 µM; in [9] it was 3.3 µM.
Regarding `COc1ccc(CC2NCCc3cc(OC)c(OC)cc32)cc1` (centres undefined), the TGI in test [1], in [7], in [2], in [4], in test [5] and in test [6] was > 100 µM in each case.
On to `CC1CC(=O)C(CC(=O)O)C1C(C(=O)C(=O)Nc1c(C#N)cccc1[N+](=O)[O-])[N+](=O)[O-]` (centres undefined), for which the TGI in [1], in test [7], in test [2], in test [3], in test [4] and in [5] was > 100 µM throughout. In test [6], the TGI was > 100 µM.
For `Oc1ccc2c3c1OC1C(=NN=C4CCC5(O)C6Cc7ccc(O)c8c7C5(CCN6CC5CC5)C4O8)CCC4(O)C(C2)N(CC2CC2)CCC314` (centres undefined), the TGI was 34.6 µM in [1]; 34.5 µM in test [7]; > 66 µM in [2]; > 67.7 µM in [3]; 32.8 µM in test [4]; 32.6 µM in test [5]. In addition, the TGI in test [6] is > 100 µM.
Regarding `O=C1CCCC(=O)C1=C(O)CCCCCCCCCCc1ccccc1`, the TGI in test [1] is > 100 µM; in test [2], > 100 µM; in test [4], 79 µM; in test [5], > 100 µM.
On to `O=C1Nc2ccccc2/C1=C/c1cn(C(=O)c2c(Cl)cccc2Cl)c2ccccc12`, for which the GI50 in test [1] is 1.65 µM; in [10], 3.09 µM; in test [7], 2.61 µM; in test [3] it was 1.25 µM; in [4], 3.92 µM; in test [5], 2.24 µM. The GI50 is 3.46 µM in test [6] and 2.24 µM in test [9]. The TGI came to 3.65 µM in [1]; 16.8 µM in test [10]; 14.9 µM in test [7]; 4.32 µM in [3]; 14.9 µM in test [4]; 9.3 µM in test [5]. In addition, the TGI was found to be 22.6 µM in [6] and 7.1 µM in test [9].
`C=CCC12CC(=O)C=C1CCC1(C2)OCCO1` (centres undefined): the TGI in [1], in test [7], in test [2], in test [3] and in [6] was > 100 µM throughout.
